Assay results: patent US20200038479A1, “WOUND HEALING AGENT HAVING ANTIMICROBIAL ACTIVITY AND WOUND HEALING ACCELERATING ACTIVITY” (MARUHA NICHIRO CORPORATION, priority 2016, published 2020)
“Also recorded” adds a separate entry of the source.

Columns and labels:
Staphylococcus aureus [1] = test: Antimicrobial activity test (JIS L 1902:2015 / ISO 20743) on standard cloth; type: cell-based; conditions: cultured 37° C. for 18 to 24 hours
From the text: The antimicrobial activity of the protamine component can be evaluated based on an antimicrobial activity value described in “JIS L 1902:2015 Textiles—Determination of antibacterial activity and efficacy of textile products” (ISO 20743), and when a target material has an antimicrobial activity value of 2.0 or more, it can be determined to have the antimicrobial activity.
A standard cloth was cut into an appropriate size with a mass of 0.40 g±0.05 g. Sterile water (a control sample) and each of the test sample solutions (protamine hydrochloride: manufactured by Maruha Nichiro Corporation, protamine sulfate: manufactured by Maruha Nichiro Corporation, silver sulfate: manufactured by Wako Pure Chemical Industries Ltd.) were prepared and filtered, separately.
A Staphylococcus aureus suspension was inoculated by 0.2 mL each in separate several portions on each test piece. Immediately after the inoculation, 20 mL of a saline for washing out was added to some vials for washing out Staphylococcus aureus cells, and then a viable cell count was measured. The rest of the vials without washing-out was cultured at 37° C.±2° C. for 18 to 24 hours. After the cultivation, 20 mL of a saline for washing out was added to each vial for washing out Staphylococcus aureus cells, and then a viable cell count was measured. In accordance with the formula (1), an antimicrobial activity value was calculated, and a sample having an antibacterial activity value of 2.0 or more was determined as having the antimicrobial activity.
A=(log Ct−log C0)−(log Tt−log T0) Formula (1)
A: antibacterial activity value log Ct: arithmetic average common logarithm of viable cell count in a control sample obtained after cultivation for 18 to 24 hours log C0: arithmetic average common logarithm of viable cell count in a control sample obtained immediately after inoculation log Tt: arithmetic average common logarithm of viable cell count in a test sample obtained after cultivation for 18 to 24 hours log T0: arithmetic average common logarithm of viable cell count in a test sample obtained immediately after inoculation

[2] = test system: full-thickness skin incision wound; test: Healing test, full-thickness skin incision wound; type: in vivo, rat; conditions: 1.25% by mass on substrate, changed daily, day 1 to 4 of observation, compared with control group and silver sulfate group
Method: A substrate (Jintan Medicare sterile pad T, manufactured by Morishita Jintan Co., Ltd.) was prepared, and each of filtered test solutions (protamine hydrochloride, protamine sulfate and silver sulfate) was homogeneously applied to each substrate to obtain a solid content of the active ingredient of 1.25% by mass. In a flank region on either side of an eight-week-old BrlHan: WIST@Jcl (GALAS) rat (four rats used in each test group), a full-thickness skin incision wound with a size of 2.5 cm×2.5 cm was created.
The substrate and the dressing were changed once every day, the incision wound was photographed with a digital camera at the time of the change, and then, an area of the wound was obtained by using image analysis software (Image J, National Institutes of Health, USA). Assuming that the area of the wound on the day of creating the wound (day 0 of observation) was 100%, an area ratio (%) of the wound on each observation date was obtained.

Staphylococcus aureus [3] = test: Examination of sterilization treatment: antimicrobial activity test after EOG or γ-ray sterilization; type: cell-based; conditions: 1.25% by mass
Method: A protamine hydrochloride powder and a protamine sulfate powder were respectively enclosed in sterilization bags (roll bag for IDS, manufactured by Hogy Medical Co., Ltd.). For a control group (not treated), the sterilization treatment was not performed, and the rest was subjected to the EOG sterilization (EOG concentration: 20%, sterilization time: 4 hours, temperature: 55° C.) and the γ-ray sterilization (30 kGy). The standard cloth was cut into an appropriate size with a mass of 0.40 g±0.05 g. Each of the test powders (protamine hydrochloride and protamine sulfate) was dissolved in sterile water, separately, and then the resultant was filtered. […] A Staphylococcus aureus suspension was inoculated by 0.2 mL each in separate several portions on each test piece. Immediately after the inoculation, 20 mL of a saline for washing out was added to some vials for washing out Staphylococcus aureus cells, and then a viable cell count was measured. The rest of the vials without washing-out was cultured at 37° C.±2° C. for 18 to 24 hours. After the cultivation, 20 mL of a saline for washing out was added to each vial for washing out Staphylococcus aureus cells, and then a viable cell count was measured.

[4] = 0.125% by mass on standard cloth
[5] = 1.25% by mass on standard cloth
[6] = EOG Sterilization (20%, 4 hours, 55° C.)

Compound	Antibacterial Activity Value (Staphylococcus aureus [1]; [4])	Antibacterial Activity Value (Staphylococcus aureus [1]; [5])	wound healing accelerating effect (area ratio of the wound) ([2]; hydrochloride)	Antibacterial Activity Value (Staphylococcus aureus [3]; [6])	Antibacterial Activity Value (Staphylococcus aureus [3]; Not Treated)	Antibacterial Activity Value (Staphylococcus aureus [3]; γ-ray Sterilization (30 kGy))	wound healing accelerating effect (area ratio of the wound) [2]
protamine hydrochloride	≥2.0	≥2.0	exhibit a wound healing accelerating effect; also recorded: an effect of accelerating wound healing was observed	≥2.0	≥2.0	≥2.0	–
protamine sulfate	≥2.0	≥2.0	–	≥2.0	≥2.0	≥2.0	exhibit a wound healing accelerating effect; also recorded: an effect of accelerating wound healing was observed
O=S(=O)([O-])[O-].[Ag+].[Ag+] [Silver Sulfate, silver sulfate, reference compound]	≥2.0	≥2.0	–	–	–	–	the wound healing accelerating effect was found in protamine hydrochloride and protamine sulfate alone
